In PubChem BioAssay AID588401 (Johns Hopkins Ion Channel Center, 2011):
Active and inactive are the calls of the source.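 How the source made its calls: active means blocks the choline transporter at some tested dose and yields a fitted dose response curve; inconclusive means no clear call, values can overlap the other calls; inactive means no blocking at any dose or no curve.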

The compounds below were run against High affinity choline transporter 1 (Homo sapiens) (UniProt Q9GZV3) (assay: human choline transporter blockers, potency – cell-based, 10-point CRC, membrane potential dye, dose response (AID 588401)). Settings: HEK293-CHT, choline-induced depolarization, at 25 µM (top of the series).
Sequence of High affinity choline transporter 1 (Homo sapiens) (Q9GZV3 whole entry, looked up): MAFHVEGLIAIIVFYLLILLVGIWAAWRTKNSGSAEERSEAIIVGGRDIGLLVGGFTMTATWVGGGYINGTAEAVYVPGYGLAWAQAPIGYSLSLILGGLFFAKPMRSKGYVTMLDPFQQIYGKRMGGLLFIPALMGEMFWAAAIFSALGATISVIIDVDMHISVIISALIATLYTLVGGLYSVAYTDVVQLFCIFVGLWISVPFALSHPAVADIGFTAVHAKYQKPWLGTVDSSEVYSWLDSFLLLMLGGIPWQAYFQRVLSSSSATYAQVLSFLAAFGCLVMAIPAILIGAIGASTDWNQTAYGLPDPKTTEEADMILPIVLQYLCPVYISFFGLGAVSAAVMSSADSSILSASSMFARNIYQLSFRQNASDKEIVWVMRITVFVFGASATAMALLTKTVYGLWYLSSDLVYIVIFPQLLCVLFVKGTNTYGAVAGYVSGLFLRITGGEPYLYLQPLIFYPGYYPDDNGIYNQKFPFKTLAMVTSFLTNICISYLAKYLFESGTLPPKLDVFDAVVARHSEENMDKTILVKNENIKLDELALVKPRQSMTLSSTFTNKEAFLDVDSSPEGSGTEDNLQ
`C=CCn1c(O)c(C(CC)=NC(C)c2ccccc2)c(=O)[nH]c1=O` (stereo not given) was tested, and the “inhibition (negative values = inhibition)” value (“inhibition” for short) was “inactive”.

Same assay, conditions: HEK293-CHT, choline-induced depolarization, at 25 µM (top of the series), cells express LV-AA mutant CHT
For `Cc1ccccc1-n1c(C)cc(/C=N/NC(=O)c2ccc(CN3CCOCC3)cc2)c1C`, the “inhibition” value was “inactive”.
`Cc1nn2c(N3CCN(C)CC3)c3c(nc2c1-c1ccccc1)CCCC3` was tested, and the “inhibition” value was “inactive”.
For `Cc1cccc(C(=O)NNC(=S)NC(=O)c2ccccc2)c1`, the “inhibition” value was “inactive”.
`Cc1ccc(C(=O)CSc2nnc(-c3ccco3)n2C)cc1` was tested, and the “inhibition” value was “inactive”.
With `NC(=S)N/N=C1/CCSc2ccc3ccccc3c21` the “inhibition” value was “inactive”.
For `COc1ccc(C(C(=O)NC2CCCCC2)N(C(=O)c2ccco2)c2ccccc2C(C)=O)cc1OC` (stereo not given), the “inhibition” value was “inactive”.
In the case of `O=C(c1c(O)c2ccccc2oc1=O)C1CCCCC1`, the “inhibition” value is reported as “inactive”.
`c1ccc(CN2CCN(c3nc4ccccc4n4cnnc34)CC2)cc1` was tested, and the “inhibition” value was “inactive”.
`CCS(=O)(=O)C1=NN2C(=N)/C(=C\c3ccc(OS(=O)(=O)c4ccccc4)cc3)C(=O)N=C2S1` was tested, and the “inhibition” value was “inactive”.
For `N#CC(C#N)=C(Nc1ccc(F)cc1)SCc1cccc(F)c1`, the “inhibition” value was “inactive”.
With `CCOc1ccc(/C=C2\SC(=S)N(NS(=O)(=O)c3ccccc3)C2=O)cc1OC` the “inhibition” value was “inactive”.
In the case of `CN(Cc1cccs1)c1ncnc2sccc12`, the “inhibition” value is reported as “inactive”.
For `O=S(=O)(c1ccc(N2CCCC2)nc1)N1CCCC1`, the “inhibition” value was “inactive”.
For `Cc1ccc(S(=O)(=O)N2[C@@H](c3ccc(Cl)cc3)C(C(=O)O)=CC[C@H]2c2ccc(Cl)cc2)cc1`, the “inhibition” value was “inactive”.
`CCc1ccc2oc(C(=O)NCC(c3ccc(OC)cc3)N3CCCCC3)c(C)c2c1` (stereo not given) was tested, and the “inhibition” value was “inactive”.
`CC(C)Nc1nc(Cl)nc(N(C#N)CN2C(=O)c3ccccc3C2=O)n1` was tested, and the “inhibition” value was “inactive”.
`CCOC(=O)c1cccc(NC(=O)CSc2nnc(C)n2Cc2ccccc2)c1` was tested, and the “inhibition” value was “inactive”.
`CCCn1nc2cc(C(=O)NCc3ccc(C)cc3)ccc2c1OCC` was tested, and the “inhibition” value was “inactive”.
With `Cc1ccc(S(=O)(=O)N2[C@@H](c3ccc(Cl)cc3)C(C(=O)O)=CC[C@H]2c2ccc(Cl)c(Cl)c2)cc1` the “inhibition” value was “inactive”.
With `CN(C)CCCn1c(=O)n(C2CCCCC2)c(=O)c2c3c(sc21)CCCCC3` the “inhibition” value was “inactive”.
`C=C(C)CSc1nnc(CCCCCNC(=O)OC(C)(C)C)o1` was tested, and the “inhibition” value was “inactive”.
With `c1ccc(CCNc2c3c(nc4ncnn24)CCC3)cc1` the “inhibition” value was “inactive”.
For `CCOC(=O)Cc1csc(NS(=O)(=O)c2ccc3c4c(cccc24)C(=O)N3CC)n1`, the “inhibition” value was “inactive”.
`CC(/C=C1\SC(=S)N(NS(=O)(=O)c2ccccc2)C1=O)=C\c1ccccc1` was tested, and the “inhibition” value was “inactive”.
With `C=CCSc1nc2ccccc2n1Cc1nnc(-c2cccs2)o1` the “inhibition” value was “inactive”.
For `O=C(O)C1CCN(c2nc(-c3ccccc3)nc3c2oc2ccccc23)CC1`, the “inhibition” value was “inactive”.
In the case of `COc1cccc(/C=C2\SC(=S)N(NS(=O)(=O)c3ccccc3)C2=O)c1OC`, the “inhibition” value is reported as “inactive”.
For `Cc1cccc(C(=O)Nc2cccc(OCC(=O)O)c2)c1`, the “inhibition” value was “inactive”.
`CCOC(=O)c1nc(NNC(=O)c2ccc([N+](=O)[O-])cc2)sc1C` was tested, and the “inhibition” value was “inactive”.
In the case of `O=C(Nc1ccccc1C(=O)NCCCN1CCOCC1)c1ccc(F)cc1`, the “inhibition” value is reported as “inactive”.
With `CC1CCCCC1NC(=S)Nc1ccc(SC(F)F)cc1` (stereo not given) the “inhibition” value was “inactive”.
`C/C(=N/NC(=O)c1cc(Cl)ccc1O)C12CC3CC(CC(C3)C1)C2` was tested, and the “inhibition” value was “inactive”.
For `CCCNc1nc2c(c(=O)n(C)c(=O)n2C)n1CCC(C)C`, the “inhibition” value was “inactive”.
`O=C(CSc1nnc(-c2ccncc2)n1Cc1ccco1)c1ccc(Cl)cc1` was tested, and the “inhibition” value was “inactive”.
`COc1cc(CNc2ccc(N3CCCCC3)cc2)ccc1OCC(=O)NC(C)(C)C` was tested, and the “inhibition” value was “inactive”.
For `Cn1c(-c2sc3ccccc3c2Cl)n[nH]c1=S`, the “inhibition” value was “inactive”.
For `C[C@H](NC(=O)OC(C)(C)C)c1nnc(SCC(=O)c2ccc(Cl)cc2)o1`, the “inhibition” value was “inactive”.
`CCCc1ccc(OCc2ccc(C(=O)NCc3cccnc3)o2)c(OC)c1` was tested, and the “inhibition” value was “inactive”.

Same assay, conditions: HEK293-CHT, choline-induced depolarization, cells express LV-AA mutant CHT
`Cc1ccc(NC(=O)c2ccc(CN3CC(=O)N4CCCCC4C3=O)cc2)c(C)c1` (stereo not given) showed an IC50 of 4.47 µM.
